From patent publication US20240174727A1, “LONG-ACTING NATRIURETIC PEPTIDES AND USES THEREOF” (Eli Lilly and Company, priority 2022, published 2024)
Read-outs that look alike come from different tables or passages of the source. Numbered stars: 1 amine (or outer) side, 2 acyl side, 3 side chain; on linkers, the order of the positions; unused ones are H or OH. Bridge positions count the residues as written; N and C are the ends. Square brackets hold non-standard residues; d marks the D form. Peptide text beside a SMILES is read from it. * marks the point of attachment. PEG24 = NCCOCCOCCOCCOCCOCCOCCOCCOCCOCCOCCOCCOCCOCCOCCOCCOCCOCCOCCOCCOCCOCCOCCOCCOCCC(=O)O; C20 diacid = O=C(O)CCCCCCCCCCCCCCCCCCC(=O)*; γGlu = O=C(O)[C@H](CCC(=O)[*:2])N[*:1]; 4Pal = N[C@@H](Cc1ccncc1)C(=O)O; Dap = NC[C@H](N)C(=O)O; CH2 = C([*:1])[*:2]; βAla = NCCC(=O)O

Molecular target: T1, rat NPRA (Rattus norvegicus, UniProt P18910)
T1 construct: Full-Length cDNA Cloning and Generation of Cell Lines Overexpressing Natriuretic Peptide Receptors (NPRs); expressed in transfected cells; host or cells: Jump-in T-Rex HEK293 cells, pJTI R4 CMV-TO MCS pA vector, tetracycline induction
T1 sequence (P18910 29-1057): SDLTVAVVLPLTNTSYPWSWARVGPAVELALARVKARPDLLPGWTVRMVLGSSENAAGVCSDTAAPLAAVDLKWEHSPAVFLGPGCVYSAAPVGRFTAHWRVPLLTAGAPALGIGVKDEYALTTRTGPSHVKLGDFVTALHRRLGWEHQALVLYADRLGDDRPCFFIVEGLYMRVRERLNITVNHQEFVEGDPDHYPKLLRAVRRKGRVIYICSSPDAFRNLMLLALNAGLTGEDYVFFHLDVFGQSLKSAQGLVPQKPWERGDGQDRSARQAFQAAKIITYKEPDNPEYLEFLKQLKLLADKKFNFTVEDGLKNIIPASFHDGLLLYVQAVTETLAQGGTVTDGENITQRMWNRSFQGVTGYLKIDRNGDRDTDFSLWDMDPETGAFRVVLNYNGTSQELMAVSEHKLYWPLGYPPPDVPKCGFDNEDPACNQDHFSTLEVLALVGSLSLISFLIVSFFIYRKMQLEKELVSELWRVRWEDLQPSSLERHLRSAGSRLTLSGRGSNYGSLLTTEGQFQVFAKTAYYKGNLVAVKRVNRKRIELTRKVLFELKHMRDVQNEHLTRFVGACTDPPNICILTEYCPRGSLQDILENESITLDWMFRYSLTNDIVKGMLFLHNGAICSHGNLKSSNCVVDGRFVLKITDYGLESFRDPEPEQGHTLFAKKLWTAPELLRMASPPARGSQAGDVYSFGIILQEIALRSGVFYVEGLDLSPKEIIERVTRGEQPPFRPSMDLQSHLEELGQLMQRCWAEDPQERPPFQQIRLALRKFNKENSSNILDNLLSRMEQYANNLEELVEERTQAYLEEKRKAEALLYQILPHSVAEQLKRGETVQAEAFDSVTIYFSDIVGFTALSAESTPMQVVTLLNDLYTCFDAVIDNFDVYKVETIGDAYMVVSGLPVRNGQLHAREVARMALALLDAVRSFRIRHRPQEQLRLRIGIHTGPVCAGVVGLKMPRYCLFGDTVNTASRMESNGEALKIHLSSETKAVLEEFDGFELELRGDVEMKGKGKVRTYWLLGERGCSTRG
Test: Rat NPRA cGMP activity assay (HTRF) in HEK293 cells overexpressing NPRA
Type: cell-based
In short: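 Tetracycline-induced (300 ng/mL, 48 h) T-Rex HEK293 cells expressing NPRA, 4000 cells/well, treated 40 min at room temperature with polypeptide (8 points, 10 μM to 1 pM) in HBSS/HEPES buffer with 0.5 mM IBMX, pH 7.4. cGMP by HTRF, normalised to 100 nM amidated rat ANP and buffer.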

[1] = assay buffer with 0.1% casein, read-out: cGMP Assay (EC50, pM) w/Casein rNPRA
[2] = assay buffer with 0.1% BSA, read-out: cGMP Assay (EC50, pM) w/BSA rNPRA
[3] = cGMP Assay (EC50, pM) w/BSA rNPRA, assay buffer with 0.1% BSA
[4] = cGMP Assay (EC50, pM) w/Casein rNPRA, assay buffer with 0.1% casein

CC[C@H](C)[C@@H]1NC(=O)[C@H](CCCNC(=N)N)NC(=O)[C@H](CC(=O)O)NC(=O)[C@H]([C@@H](C)CC)NC(=O)[C@H](CCCNC(=N)N)NC(=O)CNC(=O)CNC(=O)[C@H](Cc2ccccc2)NC(=O)[C@@H](NC(=O)[C@H](CO)NC(=O)[C@H](CO)NC(=O)[C@H](CCCNC(=N)N)NC(=O)[C@H](CCCNC(=N)N)NC(=O)[C@H](Cc2ccncc2)NC(=O)[C@H](CO)NC(=O)COCCOCCNC(=O)COCCOCCNC(=O)COCCOCCNC(=O)COCCOCCNC(=O)COCCOCCNC(=O)COCCOCCNC(=O)CNC(=O)[C@H](CCCCN)NC(=O)[C@H](CCC(=O)O)NC(=O)[C@H](CCCCN)NC(=O)[C@H](CCC(=O)O)NC(=O)[C@H](CCCCN)NC(=O)[C@H](CCC(=O)O)NC(=O)CC[C@H](NC(=O)CCCCCCCCCCCCCCCCCCC(=O)O)C(=O)O)CSCSC[C@@H](C(=O)N2CCC[C@H]2C(=O)N[C@@H](CO)C(=O)N[C@@H](Cc2ccccc2)C(=O)N[C@@H](CCCNC(=N)N)C(=O)N[C@@H](Cc2c[nH]cn2)C(=O)NCC(=O)NCC(=O)N[C@@H](CCCCN)C(=O)N[C@@H](CO)C(=O)N[C@@H](CO)C(=O)NCC(=O)N[C@@H](C)C(=O)N2CCC[C@H]2C(=O)N2CCC[C@H]2C(=O)N2CCC[C@H]2C(=O)N[C@@H](CO)C(N)=O)NC(=O)CNC(=O)[C@H](CC(C)C)NC(=O)CNC(=O)[C@H](CO)NC(=O)[C@H](CCC(N)=O)NC(=O)[C@H](Cc2c[nH]cn2)NC(=O)CNC1=O [Example 86]
EC50 [1]: 17900 pM

CC[C@H](C)[C@@H]1NC(=O)[C@H](CCCNC(=N)N)NC(=O)[C@H](CC(=O)O)NC(=O)[C@H]([C@@H](C)CC)NC(=O)[C@H](CCCNC(=N)N)NC(=O)[C@H](CCCCN)NC(=O)CNC(=O)[C@H](Cc2ccccc2)NC(=O)[C@@H](NC(=O)[C@H](CO)NC(=O)[C@H](CO)NC(=O)[C@H](CCCNC(=N)N)NC(=O)CCNC(=O)[C@H](CCCCN)NC(=O)[C@H](CCC(=O)O)NC(=O)CCOCCOCCOCCOCCOCCOCCOCCOCCOCCOCCOCCOCCOCCOCCOCCOCCOCCOCCOCCOCCOCCOCCOCCOCCNC(=O)CNC(=O)[C@H](CCCCN)NC(=O)[C@H](CCC(=O)O)NC(=O)[C@H](CCCCN)NC(=O)[C@H](CCC(=O)O)NC(=O)[C@H](CCCCN)NC(=O)[C@H](CCC(=O)O)NC(=O)CC[C@H](NC(=O)CCCCCCCCCCCCCCCCCCC(=O)O)C(=O)O)CSCSC[C@@H](C(=O)N2CCC[C@H]2C(=O)N[C@@H](CO)C(=O)N[C@@H](Cc2ccccc2)C(=O)N[C@@H](CCCNC(=N)N)C(=O)N[C@@H](Cc2c[nH]cn2)C(=O)NCC(=O)NCC(=O)N2CCC[C@H]2C(N)=O)NC(=O)CNC(=O)[C@H](CC(C)C)NC(=O)CNC(=O)[C@H](CO)NC(=O)[C@H](CCC(N)=O)NC(=O)[C@H](Cc2c[nH]cn2)NC(=O)CNC1=O [Example 130] ({C20 diacid-γGlu}-EKEKEKG[PEG24]EK[βAla]RSSCFGKRIDRIGHQSGLGCPSFRHGGP-NH2; linker 15-31 via CH2)
EC50 [2]: 197000 pM | EC50 [1]: 9170 pM

CC[C@H](C)[C@@H]1NC(=O)[C@H](CCCNC(=N)N)NC(=O)[C@H](CC(=O)O)NC(=O)[C@H]([C@@H](C)CC)NC(=O)[C@H](CCCNC(=N)N)NC(=O)CNC(=O)CNC(=O)[C@H](Cc2ccccc2)NC(=O)[C@@H](NC(=O)[C@H](CO)NC(=O)[C@H](CO)NC(=O)[C@H](CCCNC(=N)N)NC(=O)CCNC(=O)[C@H](CCCCN)NC(=O)[C@H](CCC(=O)O)NC(=O)CNC(=O)[C@H](CCCCN)NC(=O)[C@H](CCC(=O)O)NC(=O)[C@H](CCCCN)NC(=O)[C@H](CCC(=O)O)NC(=O)[C@H](CCCCN)NC(=O)[C@H](CCC(=O)O)NC(=O)CC[C@H](NC(=O)CCCCCCCCCCCCCCCCCCC(=O)O)C(=O)O)CSCSC[C@@H](C(=O)N2CCC[C@H]2C(=O)N[C@@H](CO)C(=O)N[C@@H](Cc2ccccc2)C(=O)N[C@@H](CCCNC(=N)N)C(=O)N[C@@H](Cc2c[nH]cn2)C(=O)NCC(=O)NCC(=O)N2CCC[C@H]2C(=O)N[C@@H](CO)C(=O)N[C@@H](CO)C(=O)NCC(=O)N[C@@H](C)C(=O)N2CCC[C@H]2C(=O)N2CCC[C@H]2C(=O)N2CCC[C@H]2C(=O)N[C@@H](CO)C(N)=O)NC(=O)CNC(=O)[C@H](CC(C)C)NC(=O)CNC(=O)[C@H](CO)NC(=O)[C@H](Cc2ccc(O)cc2)NC(=O)[C@H](Cc2c[nH]cn2)NC(=O)CNC1=O [Example 56]
EC50 [3]: 1.38e+06 pM | EC50 [4]: 11200 pM

{C20 diacid-γGlu}-EKEKEKGEKPRSSCFG[Dap]RIDRIGHQSGLGCPSFRHGSPSSGAPPPS-NH2 (linker 14-30 via CH2) [Example 137]
EC50 [2]: 2.19e+06 pM | EC50 [1]: 76900 pM

{C20 diacid-γGlu}-EKEKEKG[PEG24]S[4Pal]RRSSCFGGRIDRIGHQSGLGCPSFRHGGPSSGAPPPS-NH2 (linker 15-31 via CH2) [Example 61]
EC50 [3]: 463000 pM

CC[C@H](C)[C@@H]1NC(=O)[C@H](CCCNC(=N)N)NC(=O)[C@H](CC(=O)O)NC(=O)[C@H]([C@@H](C)CC)NC(=O)[C@H](CCCNC(=N)N)NC(=O)CNC(=O)CNC(=O)[C@H](Cc2ccccc2)NC(=O)[C@@H](NC(=O)[C@H](CO)NC(=O)[C@H](CO)NC(=O)[C@H](CCCNC(=N)N)NC(=O)CCNC(=O)[C@H](CCC(=O)O)NC(=O)[C@H](CCCCN)NC(=O)CNC(=O)[C@H](CCCCN)NC(=O)[C@H](CCC(=O)O)NC(=O)[C@H](CCCCN)NC(=O)[C@H](CCC(=O)O)NC(=O)[C@H](CCCCN)NC(=O)[C@H](CCC(=O)O)NC(=O)CC[C@H](NC(=O)CCCCCCCCCCCCCCCCCCC(=O)O)C(=O)O)CSCSC[C@@H](C(=O)N2CCC[C@H]2C(=O)N[C@@H](CO)C(=O)N[C@@H](Cc2ccccc2)C(=O)N[C@@H](CCCNC(=N)N)C(=O)N[C@@H](Cc2c[nH]cn2)C(=O)NCC(=O)NCC(=O)N2CCC[C@H]2C(=O)N[C@@H](CO)C(=O)N[C@@H](CO)C(=O)NCC(=O)N[C@@H](C)C(=O)N2CCC[C@H]2C(=O)N2CCC[C@H]2C(=O)N2CCC[C@H]2C(=O)N[C@@H](CO)C(N)=O)NC(=O)CNC(=O)[C@H](CC(C)C)NC(=O)CNC(=O)[C@H](CO)NC(=O)[C@H](Cc2ccc(O)cc2)NC(=O)[C@H](Cc2c[nH]cn2)NC(=O)CNC1=O [Example 58]
EC50 [3]: 1.38e+06 pM

{C20 diacid-γGlu}-EKEKEKGS[4Pal]RRSSCFGGRIGRIGHQSGLGCPSFRHGGPSSGAPPPS-NH2 (disulfide 14-30) [Example 29]
EC50 [4]: 16800 pM

{C20 diacid-γGlu}-EKEKEKGEKPRSSCFG[Dap]RIDRIGHYSGLGCPSFRHGSPSSGAPPPS-NH2 (linker 14-30 via CH2) [Example 136]
EC50 [2]: 2.43e+06 pM | EC50 [1]: 32900 pM

CC[C@H](C)[C@@H]1NC(=O)[C@H](CCCNC(=N)N)NC(=O)[C@H](CC(=O)O)NC(=O)[C@H]([C@@H](C)CC)NC(=O)[C@H](CCCNC(=N)N)NC(=O)[C@H](CCCCN)NC(=O)CNC(=O)[C@H](Cc2ccccc2)NC(=O)[C@@H](NC(=O)[C@H](CO)NC(=O)[C@H](CO)NC(=O)[C@H](CCCNC(=N)N)NC(=O)CCNC(=O)[C@H](CCCCN)NC(=O)[C@H](CCC(=O)O)NC(=O)COCCOCCNC(=O)COCCOCCNC(=O)COCCOCCNC(=O)COCCOCCNC(=O)COCCOCCNC(=O)COCCOCCNC(=O)CNC(=O)[C@H](CCCCN)NC(=O)[C@H](CCC(=O)O)NC(=O)[C@H](CCCCN)NC(=O)[C@H](CCC(=O)O)NC(=O)[C@H](CCCCN)NC(=O)[C@H](CCC(=O)O)NC(=O)CC[C@H](NC(=O)CCCCCCCCCCCCCCCCCCC(=O)O)C(=O)O)CSCSC[C@@H](C(=O)N2CCC[C@H]2C(=O)N[C@@H](CO)C(=O)N[C@@H](Cc2ccccc2)C(=O)N[C@@H](CCCNC(=N)N)C(=O)N[C@@H](Cc2c[nH]cn2)C(=O)NCC(=O)NCC(=O)N[C@@H](CCCCN)C(=O)N[C@@H](CO)C(=O)N[C@@H](CO)C(=O)NCC(=O)N[C@@H](C)C(=O)N2CCC[C@H]2C(=O)N2CCC[C@H]2C(=O)N2CCC[C@H]2C(=O)N[C@@H](CO)C(N)=O)NC(=O)CNC(=O)[C@H](CC(C)C)NC(=O)CNC(=O)[C@H](CO)NC(=O)[C@H](CCC(N)=O)NC(=O)[C@H](Cc2c[nH]cn2)NC(=O)CNC1=O [Example 89]
EC50 [1]: 13800 pM
